Data taken from US8722674B2, “1,3,5-triazine-2,4,6-triamine compound or pharmaceutical acceptable salt thereof, and pharmaceutical composition comprising the same” (Hanall Biopharma Co., Ltd., priority 2007, dated 2014).

Experiments:
HepG2 cells [1] = test: Measurement of cholesterol synthesis ability (Amplex red fluorescence); type: cell-based; details: Homo sapiens, HepG2 cells, 24 h treatment, lower is better, read-out: cholesterol synthesis ability, % control
From the text: (§1) Metformin that is widely used in type 2 diabetic patients inhibits the formation of glucose, the synthesis of cholesterol and triglyceride in liver cells and promote the absorption of glucose from blood vessels in the muscle cells. […] In the case of the ability to form cholesterol, triglyceride and glucose, the lower the numerical value, the better the effect. Numerical values for a control group become reference values.
(§2) As a hepatic cell model, HepG2 cells were used to measure cholesterol synthesis inhibitory ability, which is the important function of AMPK. The hepatic cell model HepG2 cells were cultured in 1% serum-containing media for 24 hours, and then treated with each of the compounds for 24 hours. Then, the cells were disrupted with lysis buffer (0.1 M potassium phosphate, pH 7.4, 0.05 M NaCl, 5 mM cholic acid, 0.1% Triton X-100). To the disrupted cells, the same volume of a reaction solution (2 U/ml cholesterol oxidizing agent, 2 U/ml peroxidase, 0.2 U/ml cholesterol esterase, and 300 μM Amplex red as a fluorescent factor) was added and allowed to react at 37° C. for 30 minutes. After completion of the reaction, the cells were measured with a fluorometer at a wavelength of 560/590 nm (ex/em), thus quantifying the amount of […] formed in the cells. A lower measurement value means an increased lipid production inhibitory ability.

HepG2 cells [2] = test: Measurement of gluconeogenesis (14C-lactate); type: cell-based; details: Homo sapiens, 24 h treatment, lower is better, read-out: gluconeogenesis (glucose synthesis ability), % control
Method: as §1
As a hepatic cell model, HepG2 cells were cultured in 10% serum-containing high glucose media, and then treated with each of the compounds for 24 hours. Then, the cells were treated with 0.5 uCi 14C-lactate and 10 mM L-lactate, and cultured for 4 hours. After cultivation, the media of the cells were removed, and the cells were washed with PBS, treated with 0.1N NaOH and left to stand at room temperature for 1 hour. Then, the cells were neutralized with 1N HCl, and the amount of glucose formed in the cells was measured with a liquid scintillation counter. […] A lower measurement value means a stronger blood glucose lowering activity.

C2C12 cells = test: Measurement of glucose absorption (3H-deoxy-glucose); type: cell-based; details: Mus musculus, differentiated C2C12 muscle cells, with 1 μM insulin 24 h, higher is better, read-out: glucose absorption, % control
From the text: as §1
As a muscle cell model, C2C12 cells were induced to differentiate into muscle cells in 2% bovine fetal serum for 6 days. The C2C12 cells which differentiated into muscle cells were treated with each of the compounds in serum-free low glucose media, and then cultured with 1 μM of insulin for 24 hours. After cultivation, the cells were treated with 1 μCi 3H-deoxy-glucose and 10 μM deoxy-glucose at 37° C. for 15 minutes. After treatment, the media were removed, and the cells were washed twice with PBS. The washed cells were treated with 0.1 N NaOH and neutralized with 1N HCl. The amount of glucose absorbed into the cells was measured with a liquid scintillation counter. The effect of the compounds was determined by selecting a compound showing an absorption effect of at least 200%, dividing the absorption effect by the average percent of the control group, and then multiplying the divided value by […]. A higher measurement value means a stronger ability to reduce insulin resistance.

HepG2 cells [3] = test: Measurement of triglyceride (Amplex red fluorescence); type: cell-based; details: Homo sapiens, 24 h treatment, lower is better, read-out: triglyceride synthesis ability, % control
Method: as §1
as §2, with “model,” for “model, HepG2 cells were used to measure cholesterol synthesis inhibitory ability, which is the important function of AMPK. The hepatic cell model”, “(0.1M” for “(0.1 M”, “(0.76” for “(2”, “glycerol kinase, […] peroxidase, 22.2 U/ml glycerol” for “cholesterol”, “agent,” for “agent, 2 U/ml peroxidase, 0.2 U/ml cholesterol esterase,”

melting point [°C] | Structure (SMILES) | activity at 250 µM (HepG2 cells [1]) [%] | activity at 500 µM (HepG2 cells [2]) [%] | activity at 250 µM (C2C12 cells) [%] | activity at 250 µM (HepG2 cells [3]) [%] | activity at 100 µM (HepG2 cells [1]) [%] | activity at 100 µM (HepG2 cells [2]; 100 uM) [%] | activity at 100 µM (C2C12 cells; 100 uM) [%] | activity at 100 µM (HepG2 cells [3]) [%] | activity at 200 µM (HepG2 cells [2]; 200 uM) [%] | activity at 200 µM (C2C12 cells; 200 uM) [%]
138.2 to 141.6 | CN(C)c1nc(N)nc(NCCN2CCOCC2)n1 [Example 3, N2,N2-dimethyl-N4-(2-morpholinoethyl)-1,3,5-triazine-2,4,6-triamine] | 113 | 67.6 | 132 | 98 |  |  |  |  |  | 
142 to 149 | CCCCCCNc1nc(N)nc(N(C)C)n1 [Example 29, N2-hexyl-N4,N4-dimethyl-1,3,5-triazine-2,4,6-triamine] |  |  |  |  | 63.5 | 16.3 | 94.5 | 41.2 |  | 
141.4 to 142 | COc1ccc(CNc2nc(N)nc(N(C)C)n2)cc1O [Example 8, 5-((4-amino-6-(dimethylamino)-1,3,5-triazine-2-ylamino)methyl)-2-methoxyphenol] |  |  |  |  | 59.1 |  |  | 106 | 94.8 | 126
151.6 to 152 | CN(C)c1nc(N)nc(NCc2ccco2)n1 [Example 5, N2-(furan-2-ylmethyl)-N4,N4-dimethyl-1,3,5-triazine-2,4,6-triamine] | 77.5 | 68.5 | 142 | 90.2 |  |  |  |  |  | 
